In patent US20080044484A1, “Use of polymeric nanoparticles for vaccine delivery” (THE REGENTS OF THE UNIVERSITY OF CALIFORNIA, priority 2004, published 2008):

Key:
[1] = tested on: K562-A2 cells pulsed with STEAP peptide; test: Blocking of CTL lysis with antibodies BB7.2 / IVA12, LDH-release assay; type: cell-based, human; settings: for Percent LDH released from K562-A2 pulsed +IVA12: anti-HLA class II antibody IVA12 added to peptide-pulsed targets before 4-hour LDH-release assay; for Percent LDH released from K562-A2 pulsed +BB7.2: anti-HLA-A2 antibody BB7.2 added to peptide-pulsed targets before 4-hour LDH-release assay
Description: As an additional control the anti-HLA class II antibody IVA12 was used. With these experiments, it was confirmed that the STEAP-specific CTL can recognize and kill target cells in a class I-restricted fashion (Table 30).

[2] = tested on: K562-A2 cells pulsed with STEAP peptide; test: In vitro induction of STEAP peptide-specific CTL, LDH-release cytotoxicity assay; settings: for Percent LDH released from K562-A2 pulsed with peptide: K562-A2 pulsed with corresponding STEAP peptide 2 hours at 37° C.; for Percent LDH released from K562-A2 pulsed with peptide / Percent LDH released from K562-A2: CTL specific for the peptide, 4-hour LDH-release assay; for Induction of peptide-specific CTL: in vitro immunization of PBMC; for Percent LDH released from K562-A2: non-pulsed K562-A2 targets
DU145 (HLA-A2−) = test: LDH-release cytotoxicity assay of STEAP-specific CTL against HLA-A2-negative control cell line; type: cell-based, human; settings: CTL specific for the peptide; 4-hour LDH-release assay
Experimental: (§1) It was tested whether the STEAP-derived peptides can induce potent CTL capable of recognizing and killing prostate cancer cells in vitro. CTL lines selected for their ability to lyse peptide-pulsed target cells were used as effectors in LDH-release cytotoxicity assays against the cancer cell lines. The HLA-A2+ cancer cell line LnCAP was used, with the HLA-A2−negative cancer cell line DU145 as a control (Table 29).

LnCap (HLA-A2+) = test: LDH-release cytotoxicity assay of STEAP-specific CTL against prostate cancer cell line; type: cell-based, human; settings: CTL specific for the peptide; 4-hour LDH-release assay
Experimental: as §1

TAP (human) = TAP (human) (UniProt Q03518); test: cell-based or functional assay
Sequence of TAP (human) (Q03518 whole entry, chain 1 of 2): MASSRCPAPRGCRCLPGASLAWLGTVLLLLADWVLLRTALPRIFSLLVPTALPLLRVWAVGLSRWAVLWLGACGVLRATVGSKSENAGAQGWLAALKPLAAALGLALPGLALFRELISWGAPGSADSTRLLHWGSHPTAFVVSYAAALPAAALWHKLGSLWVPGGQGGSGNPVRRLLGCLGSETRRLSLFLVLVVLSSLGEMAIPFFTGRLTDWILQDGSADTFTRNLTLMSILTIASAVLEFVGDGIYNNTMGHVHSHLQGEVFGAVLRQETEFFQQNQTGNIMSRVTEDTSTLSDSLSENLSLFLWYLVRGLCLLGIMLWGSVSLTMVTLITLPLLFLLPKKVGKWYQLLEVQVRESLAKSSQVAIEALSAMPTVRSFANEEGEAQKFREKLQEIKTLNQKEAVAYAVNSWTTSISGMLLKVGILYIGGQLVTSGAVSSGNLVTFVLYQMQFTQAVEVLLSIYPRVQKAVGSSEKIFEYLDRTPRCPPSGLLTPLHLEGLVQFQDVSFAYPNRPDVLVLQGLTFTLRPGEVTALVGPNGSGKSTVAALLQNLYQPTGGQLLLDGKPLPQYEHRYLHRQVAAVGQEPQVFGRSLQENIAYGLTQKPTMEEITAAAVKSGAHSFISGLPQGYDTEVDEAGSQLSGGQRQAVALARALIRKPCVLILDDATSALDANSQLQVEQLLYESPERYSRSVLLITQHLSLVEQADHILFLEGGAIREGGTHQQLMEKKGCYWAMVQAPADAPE
Sequence of TAP (human) (Q03519 whole entry, chain 2 of 2, further chain): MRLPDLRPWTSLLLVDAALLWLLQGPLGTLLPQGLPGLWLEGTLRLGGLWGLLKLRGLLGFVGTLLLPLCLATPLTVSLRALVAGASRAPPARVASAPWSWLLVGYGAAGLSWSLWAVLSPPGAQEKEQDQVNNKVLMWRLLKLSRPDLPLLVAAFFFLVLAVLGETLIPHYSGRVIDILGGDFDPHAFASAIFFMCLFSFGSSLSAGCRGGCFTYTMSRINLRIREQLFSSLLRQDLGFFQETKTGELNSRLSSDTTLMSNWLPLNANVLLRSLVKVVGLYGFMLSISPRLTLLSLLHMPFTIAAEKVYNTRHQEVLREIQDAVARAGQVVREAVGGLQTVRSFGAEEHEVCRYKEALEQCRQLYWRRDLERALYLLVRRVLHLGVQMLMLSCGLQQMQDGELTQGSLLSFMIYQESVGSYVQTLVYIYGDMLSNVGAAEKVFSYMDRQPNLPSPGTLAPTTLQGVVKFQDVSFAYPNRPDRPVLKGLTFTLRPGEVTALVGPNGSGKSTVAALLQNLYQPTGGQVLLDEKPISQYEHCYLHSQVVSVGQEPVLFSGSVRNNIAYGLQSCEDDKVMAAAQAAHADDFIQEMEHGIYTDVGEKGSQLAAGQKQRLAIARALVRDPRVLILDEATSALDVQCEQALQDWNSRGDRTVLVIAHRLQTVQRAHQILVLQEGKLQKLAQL

T2 cells [3] = test: 51Cr-release assay, T2 cells loaded or pulsed with signal sequence constructs, at periods after loading; type: cell-based, human; settings: loading into the cytosol; days 1-8 after loading
Description: By “loading” of the fusion peptides into the cytosol of T2 cells, cancer cells and dendritic cells is meant use of a technology called “osmotic lysis of pinocytic vesicles.” T2 cells were exposed to hypertonic medium containing the peptide constructs. Pinocytic vesicles form in this medium, and because of their increased internal osmotic pressure, they break in the cytosol when the cells are placed in hypotonic culture medium.
The induction of CTL in human PBMC was monitored in a conventional ^51Cr-labeling release assay. Briefly, peptide-pulsed TAP^−/HLA-A2.1^+ human T2 cells were incubated with 10 μg of HER2/neu peptides or the MART-1 control peptide for 90 min during labeling with ^51Cr. After washing, the target cells were added to serially diluted effectors in 96-well microplates. After a 6-h incubation at 37° C., supernatants were harvested and counted in a gamma counter. Results are expressed as the percentage of specific lysis and determined as follows: [(experimental cpm−spontaneous cpm)/(maximum cpm−spontaneous cpm)]×100.
Peptide-loaded or pulsed T2 cells were tested for their ability to present HER2/neu peptides at different periods of time after loading or pulsing.

[4] = tested on: ICP47-transfected cells MCF7; test: Functional blockade of TAP by ICP47, 51Cr-release from peptide-loaded cells; type: cell-based, human; settings: for Percent 51Cr Released From ICP47-transfected MCF7 cells loaded with the construct: CTL reactive against the corresponding HER2/neu peptide, 3 days after peptide loading, 6-hour assay
Description: Another aspect in these studies was to determine the mechanisms of enhancement of the antigen presentation by the fusion peptides in human tumor cell lines. Therefore, a new test system was developed utilizing the Herpes Simplex virus (HSV) protein ICP47. ICP47 is a cytoplasmic protein, which interferes with antigen presentation by physically associating with TAP within the cell and inhibiting peptide transport across the ER-membrane. By transfecting the ICP47 gene into several cancer cell lines a novel system for screening different fusion peptides for TAP-independent translocation of peptide antigens through the ER-membrane was generated.
The expression of these antigens was detected by ^51Cr-release assays.

[5] = tested on: breast cancer cells MDA-MB-231; test: IFNγ release by CTL (ELISA) after incubation with peptide-loaded MDA-MB-231 cells; type: cell-based, human; settings: CTL elicited with the corresponding HER2/neu peptide, 20 h, 10^5 CTL/well
Experimental: In interferon gamma release assays, 10^5 HER2/neu-specific CTL were co-incubated with 10^5 peptide-loaded tumor cells for 20 hours at 37° C. The concentration of human interferon gamma in co-cultured supernatants was then determined by ELISA.

[6] = tested on: breast cancer cells MDA-MB-231; test: 51Cr-release assay, MDA-MB-231 cells loaded or pulsed with signal sequence constructs; type: cell-based, human; settings: loading; days 1-8 after loading
Experimental: ^51Cr-release assays were used to test to see if the low HER2/neu-expressing breast cancer cells MDA-MB-231 can be recognized more efficiently by the HER2/neu-specific CTL after loading with the fusion peptides.
The lysis of the tumor cells by the HER2/neu-specific CTL was monitored in a conventional ^51Cr-labeling release assay. Briefly, peptide-loaded tumor cells were added to serially diluted effectors in 96-well microplates. After a 6-h incubation at 37° C., supernatants were harvested and counted in a gamma counter. Results are expressed as the percentage of specific lysis and determined as follows: [(experimental cpm−spontaneous cpm)/(maximum cpm−spontaneous cpm)]×100.
Peptide-loaded breast cancer cells MDA-MB-231 were tested for their ability to present HER2/neu peptides at different periods of time after loading or pulsing.

T2 cells [7] = test: IFNγ release by CTL (ELISA) after incubation with peptide-loaded T2 cells; type: cell-based, human; settings: CTL elicited with the corresponding HER2/neu peptide, 20 h, 10^5 CTL/well
Experimental: In interferon gamma-release assays, 10^5 HER2/neu-specific CTL were co-incubated with 10^5 peptide-loaded T2 cells for 20 hours at 37° C. The concentrations of human interferon gamma in co-cultured supernatants were then determined by ELISA.

HLA-A2.1 (human) = test: cell-based or functional assay

| Substance | Percent LDH released from K562-A2 pulsed +IVA12 [1] [%] | Percent LDH released from K562-A2 pulsed +BB7.2 [1] [%] | Percent LDH released from K562-A2 pulsed with peptide [2] [%] | Induction of peptide-specific CTL [2] | Percent LDH released from K562-A2 [2] [%] | Percent LDH released from DU145 (HLA-A2−) (DU145 (HLA-A2−)) [%] | Percent LDH released from LnCap (HLA-A2+) (LnCap (HLA-A2+)) [%] | Release of IFNγ by CTL, T2 cells loaded with the peptide (T2 cells [7]; Day 1 after peptide loading) [pg/mL] | Release of IFNγ by CTL, T2 cells loaded with the peptide (T2 cells [7]; Day 3 after peptide loading) [pg/mL] | Release of IFNγ by CTL, T2 cells loaded with the peptide (T2 cells [7]; Day 5 after peptide loading) [pg/mL] | Release of IFNγ by CTL, T2 cells loaded with the peptide (T2 cells [7]; Day 8 after peptide loading) [pg/mL] | also measured |
| --- | --- | --- | --- | --- | --- | --- | --- | --- | --- | --- | --- | --- |
| FLPGVIAAI [STEAP130-138 - 1F] | 69 | 2 | 75 | induced potent peptide-specific CTL | 4 | −1 | 73 | – | – | – | – | – |
| FLWGVIAAV [STEAP130-138 - 1F/3W/9V] | 75 | 1 | 74 | induced potent peptide-specific CTL | 1 | 1 | 84 | – | – | – | – | – |
| Herpes Simplex virus (HSV) protein ICP47 (from UniProt P03170 1-88) | – | – | – | – | – | – | – | – | – | – | – | Percent 51Cr released from MCF7-ICP47 (CTL369-377, E:T 20:1; 29 for untransfected MCF7) (percent 51Cr released) (TAP (human)): 3; Percent 51Cr released from MCF7-ICP47 (CTL369-377, E:T 40:1; 62 for untransfected MCF7) (percent 51Cr released) (TAP (human)): 3; Percent 51Cr released from MCF7-ICP47 (CTL654-662, E:T 20:1; 31 for untransfected MCF7) (percent 51Cr released) (TAP (human)): 2; Percent 51Cr released from MCF7-ICP47 (CTL654-662, E:T 40:1; 74 for untransfected MCF7) (percent 51Cr released) (TAP (human)): 4 |
| LLNWAYQQV (listed as Homo sapiens) [STEAP192-200] | 30 | 7 | 56 | induced potent peptide-specific CTL | 8 | 18 | 43 | – | – | – | – | Induction of peptide-specific CTL in patients with prostate cancer ([2]; number of patients): three out of three |
| LLSFFFAVL (listed as Homo sapiens) [STEAP166-174] | 47 | 11 | 43 | induced potent peptide-specific CTL | 3 | 4 | 65 | – | – | – | – | – |
| M A IISAVVGIL A A A A A G (MAIISAVVGILAAAAAG) [HER654-662-IN-AF] | – | – | – | – | – | – | – | 3321 | 2981 | 1892 | 881 | Recognition by CTL of T2 cells loaded with the peptide (51Cr-release) (T2 cells [3]): effective; Restoration of antigen presentation in ICP47-transfected breast cancer cells ([4]; 51Cr-release): able to restore the antigen presentation; Percent 51Cr Released From ICP47-transfected MCF7 cells loaded with the construct ([4]; E:T 20:1): 22%; Percent 51Cr Released From ICP47-transfected MCF7 cells loaded with the construct ([4]; E:T 40:1): 66%; Release of IFNγ by CTL, MDA-MB-231 cells loaded with the peptide ([5]; Day 1 after peptide loading): 3321 pg/mL; Release of IFNγ by CTL, MDA-MB-231 cells loaded with the peptide ([5]; Day 3 after peptide loading): 2994 pg/mL; Release of IFNγ by CTL, MDA-MB-231 cells loaded with the peptide ([5]; Day 5 after peptide loading): 1933 pg/mL; Release of IFNγ by CTL, MDA-MB-231 cells loaded with the peptide ([5]; Day 8 after peptide loading): 899 pg/mL; Recognition by CTL of MDA-MB-231 cells loaded with the peptide (51Cr-release) [6]: effective |
| MA HLYQGCQVV AAAAAG (MAHLYQGCQVVAAAAAG) [HER48-56-IN-AF] | – | – | – | – | – | – | – | 3488 | 1229 | 1010 | 718 | Recognition by CTL of T2 cells loaded with the peptide (51Cr-release) (T2 cells [3]): effective |
| MRYMILGLLALAAVCSA IISAVVGIL (MRYMILGLLALAAVCSAIISAVVGIL) [ES-HER654-662] | – | – | – | – | – | – | – | 2667 | 2518 | 1245 | 581 | Percent 51Cr Released From ICP47-transfected MCF7 cells loaded with the construct ([4]; E:T 20:1): 2%; Percent 51Cr Released From ICP47-transfected MCF7 cells loaded with the construct ([4]; E:T 40:1): 3%; Release of IFNγ by CTL, MDA-MB-231 cells loaded with the peptide ([5]; Day 1 after peptide loading): 2767 pg/mL; Release of IFNγ by CTL, MDA-MB-231 cells loaded with the peptide ([5]; Day 3 after peptide loading): 2622 pg/mL; Release of IFNγ by CTL, MDA-MB-231 cells loaded with the peptide ([5]; Day 5 after peptide loading): 1445 pg/mL; Release of IFNγ by CTL, MDA-MB-231 cells loaded with the peptide ([5]; Day 8 after peptide loading): 578 pg/mL |
| MTNKCLLQIALLLCFSTTALS IISAVVGIL (MTNKCLLQIALLLCFSTTALSIISAVVGIL) [IS-HER654-662] | – | – | – | – | – | – | – | 2590 | 1990 | 1557 | 615 | Percent 51Cr Released From ICP47-transfected MCF7 cells loaded with the construct ([4]; E:T 20:1): 3%; Percent 51Cr Released From ICP47-transfected MCF7 cells loaded with the construct ([4]; E:T 40:1): 5%; Release of IFNγ by CTL, MDA-MB-231 cells loaded with the peptide ([5]; Day 1 after peptide loading): 2678 pg/mL; Release of IFNγ by CTL, MDA-MB-231 cells loaded with the peptide ([5]; Day 3 after peptide loading): 1974 pg/mL; Release of IFNγ by CTL, MDA-MB-231 cells loaded with the peptide ([5]; Day 5 after peptide loading): 1604 pg/mL; Release of IFNγ by CTL, MDA-MB-231 cells loaded with the peptide ([5]; Day 8 after peptide loading): 628 pg/mL |
| YLPGVIAAI (listed as Homo sapiens) [STEAP130-138] | 37 | 2 | 63 | induced potent peptide-specific CTL | 1 | −1 | 53 | – | – | – | – | – |
| YLPGVIAAV [STEAP130-138 - 9V] | 47 | 1 | 53 | induced potent peptide-specific CTL | 1 | −2 | 68 | – | – | – | – | – |
| YLWGVIAAI [STEAP130-138 - 3W] | 64 | 5 | 63 | induced potent peptide-specific CTL | 4 | −2 | 69 | – | – | – | – | – |
| anti-HLA-A2 antibody BB7.2 | – | – | – | – | – | – | – | – | – | – | – | Percent LDH released from peptide-pulsed K562-A2 +BB7.2 (CTL specific for STEAP130-138 -1F/3W/9V; 74 without antibody) (percent LDH released) (HLA-A2.1 (human)): 1; Percent LDH released from peptide-pulsed K562-A2 +BB7.2 (CTL specific for STEAP130-138 -1F; 75 without antibody) (percent LDH released) (HLA-A2.1 (human)): 2; Percent LDH released from peptide-pulsed K562-A2 +BB7.2 (CTL specific for STEAP130-138 -3W; 63 without antibody) (percent LDH released) (HLA-A2.1 (human)): 5; Percent LDH released from peptide-pulsed K562-A2 +BB7.2 (CTL specific for STEAP130-138 -9V; 53 without antibody) (percent LDH released) (HLA-A2.1 (human)): 1; Percent LDH released from peptide-pulsed K562-A2 +BB7.2 (CTL specific for STEAP130-138; 63 without antibody) (percent LDH released) (HLA-A2.1 (human)): 2; Percent LDH released from peptide-pulsed K562-A2 +BB7.2 (CTL specific for STEAP192-200; 56 without antibody) (percent LDH released) (HLA-A2.1 (human)): 7 |
